How the values were obtained:
Type in all cases: cell-based
[1] = molecular target: T1, CFTR (F508del/MF-HBE cells) (Homo sapiens, UniProt P13569, DEL508-508); experiment: Ussing chamber assay of CFTR-mediated short-circuit currents, Assay B (0.00001 μM to 25 μM, 12 concentrations); details: with 33 nM potentiator and 18 μM Tezacaftor, 20% human serum; for Emax: read-out: B Max activity (%)
T1 construct: human bronchial epithelial (HBE) cells derived from CF subjects heterozygous for F508del and a minimal function CFTR mutation (F508del/MF-HBE); endogenous in cells; host or cells: Primary human bronchial epithelial cells from CF subjects (F508del/MF genotype), differentiated at an air-liquid interface
T1 sequence (P13569 with tags, fused parts or gaps DEL508-508): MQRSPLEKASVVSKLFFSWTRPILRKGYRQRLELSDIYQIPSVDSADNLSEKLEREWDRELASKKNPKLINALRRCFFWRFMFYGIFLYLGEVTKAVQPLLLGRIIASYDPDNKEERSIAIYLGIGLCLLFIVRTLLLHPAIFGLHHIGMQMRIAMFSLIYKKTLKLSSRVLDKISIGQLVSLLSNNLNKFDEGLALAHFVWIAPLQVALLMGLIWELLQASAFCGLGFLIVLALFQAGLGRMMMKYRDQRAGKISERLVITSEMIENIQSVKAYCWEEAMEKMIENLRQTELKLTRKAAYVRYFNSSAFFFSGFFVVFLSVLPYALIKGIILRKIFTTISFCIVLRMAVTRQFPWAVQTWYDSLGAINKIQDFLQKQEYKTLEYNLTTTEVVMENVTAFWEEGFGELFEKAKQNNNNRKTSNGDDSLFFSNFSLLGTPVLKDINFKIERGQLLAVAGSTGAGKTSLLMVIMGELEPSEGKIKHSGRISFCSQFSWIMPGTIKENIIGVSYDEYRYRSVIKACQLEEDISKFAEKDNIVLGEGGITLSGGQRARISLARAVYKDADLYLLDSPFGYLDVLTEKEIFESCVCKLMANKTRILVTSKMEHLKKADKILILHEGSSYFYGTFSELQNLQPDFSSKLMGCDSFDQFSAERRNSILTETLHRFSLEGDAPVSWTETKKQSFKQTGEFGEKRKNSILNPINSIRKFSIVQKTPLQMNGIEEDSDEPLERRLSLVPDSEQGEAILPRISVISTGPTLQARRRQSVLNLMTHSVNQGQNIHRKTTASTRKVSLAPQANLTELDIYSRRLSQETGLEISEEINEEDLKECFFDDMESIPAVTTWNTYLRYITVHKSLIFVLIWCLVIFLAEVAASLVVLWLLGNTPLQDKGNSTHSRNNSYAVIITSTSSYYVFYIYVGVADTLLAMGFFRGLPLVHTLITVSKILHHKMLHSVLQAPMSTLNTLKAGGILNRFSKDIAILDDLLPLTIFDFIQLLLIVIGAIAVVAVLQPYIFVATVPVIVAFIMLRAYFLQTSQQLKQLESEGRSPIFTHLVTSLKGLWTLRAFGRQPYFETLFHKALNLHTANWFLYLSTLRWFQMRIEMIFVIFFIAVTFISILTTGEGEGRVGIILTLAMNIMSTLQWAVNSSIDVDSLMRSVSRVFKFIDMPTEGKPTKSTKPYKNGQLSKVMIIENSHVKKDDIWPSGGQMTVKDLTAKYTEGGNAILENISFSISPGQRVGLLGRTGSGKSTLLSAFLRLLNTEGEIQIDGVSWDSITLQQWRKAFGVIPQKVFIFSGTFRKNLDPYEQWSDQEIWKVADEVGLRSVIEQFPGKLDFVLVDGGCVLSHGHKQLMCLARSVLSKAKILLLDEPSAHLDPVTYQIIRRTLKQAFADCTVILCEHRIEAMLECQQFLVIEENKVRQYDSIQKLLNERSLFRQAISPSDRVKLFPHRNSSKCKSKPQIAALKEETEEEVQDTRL
Method: (§1) Ussing chamber experiments were performed using human bronchial epithelial (HBE) cells derived from CF subjects heterozygous for F508del and a minimal function CFTR mutation (F508del/MF-HBE) and cultured as previously described (Neuberger T, Burton B, Clark H, Van Goor F Methods Mol Biol 2011:741:39-54). After four days the apical media was removed, and the cells were grown at an air liquid interface for >14 days prior to use.
(§2) To isolate the CFTR-mediated short-circuit (ISC) current, F508del/MF-HBE grown on Costar® Snapwell™ cell culture inserts were mounted in an Ussing chamber and the transepithelial ISC was measured under voltage-clamp recording conditions (Vhold=0 mV) at 37° C. The basolateral solution contained (in mM) 145 NaCl, 0.83 K2HPO4, 3.3 KH2PO4, 1.2 MgCl2, 1.2 CaCl2, 10 Glucose, 10 HEPES (pH adjusted to 7.4 with NaOH) and the apical solution contained (in mM) 145 NaGluconate, 1.2 MgCl2, 1.2 CaCl2, 10 glucose, 10 HEPES (pH adjusted to 7.4 with NaOH) and 30 μM amiloride to block the epithelial sodium channel. Forskolin (20 μM) was added to the apical surface to activate CFTR, followed by apical addition of a CFTR inhibitor cocktail consisting of BPO, GlyH-101, and CFTR inhibitor 172 (each at 20 μM final assay concentration) to specifically isolate CFTR currents. The CFTR-mediated ISC (μA/cm^2) for each condition was determined from the peak forskolin response to the steady-state current following inhibition.
(§3) The activity of the CFTR corrector compounds on the CFTR-mediated ISC was determined in Ussing chamber studies as described above. The F508del/MF-HBE cell cultures were either incubated with the corrector compounds at a range of concentrations in combination with 33 nM (6R,12R)-17-amino-12-methyl-6,15-bis(trifluoromethyl)-13,19-dioxa-3,4,18-triazatricyclo[12.3.1.12,5]nonadeca-1(18),2,4,14,16-pentaen-6-ol and 18 μM Tezacaftor or were incubated with the corrector compounds at a single fixed concentration of 1 μM in combination with 44 nM (6R,12R)-17-amino-12-methyl-6,15-bis(trifluoromethyl)-13,19-dioxa-3,4,18-triazatricyclo[12.3.1.12,5]nonadeca-1(18),2,4,14,16-pentaen-6-ol and 18 μM Tezacaftor for 18-24 hours at 37° C. and in the presence of 20% human serum. The concentration of corrector compounds with 44 nM or 33 nM (6R,12R)-17-amino-12-methyl-6,15-bis(trifluoromethyl)-13,19-dioxa-3,4,18-triazatricyclo[12.3.1.12,5]nonadeca-1(18),2,4,14,16-pentaen-6-ol and 18 μM Tezacaftor during the 18-24 hours incubations was kept constant throughout the Ussing chamber measurement of the CFTR-mediated ISC to ensure compounds were present throughout the entire experiment. The efficacy and potency of the putative F508del correctors was compared to that of the known Vertex corrector, (14S)-8-[3-(2-{Dispiro[2.0.2.1]heptan-7-yl}ethoxy)-1H-pyrazol-1-yl]-12,12-dimethyl-2λ^6-thia-3,9,11,18,23-pentaazatetracyclo[17.3.1.111,14.05,10]tetracosa-1(22),5,7,9,19(23),20-hexaene-2,2,4-trione, in combination with 18 μM Tezacaftor and 1 μM Ivacaftor.
(§4) • Assay A: 0.1 μM to 25 μM, 6 concentrations • Assay B: 0.00001 μM to 25 μM, 12 concentrations • Assay C: 0.026 μM to 25 μM, 6 concentrations • Assay D: Activity at single concentration of 1 μM

[2] = molecular target: T1, CFTR (F508del/MF-HBE cells); experiment: Ussing chamber assay of CFTR-mediated short-circuit currents, Assay A (0.1 μM to 25 μM, 6 concentrations); details: with 33 nM potentiator and 18 μM Tezacaftor, 20% human serum; for Emax: 18-24 hours, read-out: A Max activity (%)
Method: as §1, §2, §3, §4

[3] = molecular target: T1, CFTR (F508del/MF-HBE cells); experiment: Ussing chamber assay of CFTR-mediated short-circuit currents, Assay C (0.026 μM to 25 μM, 6 concentrations); details: with 33 nM potentiator and 18 μM Tezacaftor, 20% human serum
Summary of the method: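 F508del/MF-HBE cells were preincubated 18–24 h at 37 °C in 20% human serum with corrector plus 18 μM tezacaftor and either 33 nM (concentration series) or 44 nM (1 μM single point) of the aminotrifluoromethyl triazatricyclic potentiator. Ussing chamber, Vhold=0 mV, 37 °C; forskolin 20 μM stimulation, CFTR ISC taken as inhibitor-cocktail-sensitive current.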

Row | EC50 [1] | Emax [2] | EC50 [2] | Structure (SMILES) | other results
1 | 3 to 30 µM | – | – | Cc1cccc(C)c1-c1cc2nc(n1)NS(=O)(=O)c1cccc(c1)C(=O)N(Cc1cnc3oc(C4CC4)cc3n1)[C@H](COC1CCCC1)CO2 [Compound I-118] | Emax ([1]; 18-24 hours): > 60%
2 | 3 to 30 µM | – | – | Cc1cccc(C)c1-c1cc2nc(n1)NS(=O)(=O)c1cccc(c1)C(=O)N(Cc1cnc3oc(C4CC4)cc3n1)[C@H](CC1CCCC1)CO2 [Compound I-61] | Emax ([1]; 18-24 hours): > 60%
3 | 3 to 30 µM | – | – | Cc1cccc(C)c1-c1cc2nc(n1)NS(=O)(=O)c1cccc(c1)C(=O)N(Cc1cnc3nc(C4CC4)n(C)c3n1)[C@H](COC(C)C)CO2 [Compound I-139] | Emax ([1]; 18-24 hours): > 60%
4 | 3 to 30 µM | – | – | Cc1cccc(C)c1-c1cc2nc(n1)NS(=O)(=O)c1cccc(c1)C(=O)N(Cc1cnc3oc(C4CCC4)cc3n1)[C@H](COC(C)C)CO2 [Compound I-138] | Emax ([1]; 18-24 hours): > 60%
5 | – | > 60% | < 1000 nM | Cc1cccc(C)c1-c1cc2nc(n1)NS(=O)(=O)c1cccc(c1)C(=O)N(Cc1cnc3oc(C4CC4)cc3n1)[C@H](CC1C3(CC3)C13CC3)CO2 [Compound I-102] | –
6 | – | > 60% | < 1000 nM | Cc1cccc(C)c1-c1cc2nc(n1)NS(=O)(=O)c1cccc(c1)C(=O)N(Cc1cnc3oc(C(C)C)cc3n1)[C@H](CC1CCCCC1)CO2 [Compound I-9] | –
7 | < 1 µM | – | – | COCCc1c(C(C)(C)C)n(C)c2nc(CN3C(=O)c4cccc(c4)S(=O)(=O)Nc4nc(c(OC)c(-c5c(C)cccc5CC(C)C)n4)OC[C@H]3CC(C)(C)C)cnc12 (atropisomer, axis not shown) [IV-94] | Emax [1]: > 60%; EC50 [3]: < 1000 nM; Emax ([3]; read-out: C Max activity (%)): > 60%
8 | – | > 60% | < 1000 nM | Cc1cccc(C)c1-c1cc2nc(n1)NS(=O)(=O)c1cccc(c1)C(=O)N(Cc1cnc3oc(C4CC4)cc3n1)[C@H](CC(C)(C)F)CO2 [Compound I-51] | –
9 | < 1 µM | – | – | Cc1cccc(CC(C)C)c1-c1nc2nc(c1C)OC[C@@H](CC13CC(C1)C3)N(Cc1cnc3cc(C(C)(C)C)n(C)c3n1)C(=O)c1cccc(c1)S(=O)(=O)N2 [IV-1] | Emax [1]: > 60%
10 | – | > 60% | < 1000 nM | Cc1cccc(C)c1-c1cc2nc(n1)NS(=O)(=O)c1cccc(c1)C(=O)N(Cc1cnc3oc(C(C)C)cc3n1)[C@H](CC1C3(CC3)C13CC3)CO2 [Compound I-101] | –
11 | – | > 60% | < 1000 nM | Cc1cccc(C)c1-c1cc2nc(n1)NS(=O)(=O)c1cccc(c1)C(=O)N(Cc1cnc3cc(C(C)C)n(C)c3n1)[C@H](CCC1(C)CCC1)CO2 [Compound I-41] | –
12 | 3 to 30 µM | – | – | Cc1cccc(C)c1-c1cc2nc(n1)NS(=O)(=O)c1cccc(c1)C(=O)N(Cc1cnc3oc(C4CC4)cc3n1)[C@H](CCC(C)C)CO2 [Compound I-130] | Emax ([1]; 18-24 hours): > 60%
13 | – | > 60% | < 1000 nM | Cc1cccc(C)c1-c1cc2nc(n1)NS(=O)(=O)c1cccc(c1)C(=O)N(Cc1cnc3oc(C4CC4)cc3n1)[C@H](CC1(C)CC1)CO2 [Compound I-25] | –
14 | – | > 60% | < 1000 nM | Cc1cccc(C)c1-c1cc2nc(n1)NS(=O)(=O)c1cccc(c1)C(=O)N(Cc1nc3c(C(C)C)cccc3o1)[C@H](CC(C)(C)C)CO2 [III-7] | –
15 | – | > 60% | < 1000 nM | Cc1cccc(C)c1-c1cc2nc(n1)NS(=O)(=O)c1cccc(c1)C(=O)N(Cc1cn3cccc(C#N)c3n1)[C@H](CC(C)(C)C)CO2 [III-10] | –
16 | – | > 60% | < 1000 nM | Cc1cccc(C)c1-c1cc2nc(n1)NS(=O)(=O)c1cccc(c1)C(=O)N(Cc1cnc3oc(C(C)C)c(C)c3n1)[C@H](CC(C)(C)C)CO2 [Compound I-4] | –
17 | – | > 60% | < 1000 nM | Cc1cccc(C)c1-c1cc2nc(n1)NS(=O)(=O)c1cccc(c1)C(=O)N(Cc1cnc3nc(C(C)C)n(C)c3n1)[C@H](CC1(C)CC1)CO2 [Compound I-75] | –
18 | 3 to 30 µM | – | – | Cc1cccc(C)c1-c1cc2nc(n1)NS(=O)(=O)c1cccc(c1)C(=O)N(Cc1cnc3cc(C4CC4)n(C)c3n1)[C@H](COC(C)C)CO2 [Compound I-151] | Emax ([1]; 18-24 hours): > 60%
19 | – | > 60% | < 1000 nM | Cc1cccc(C)c1-c1cc2nc(n1)NS(=O)(=O)c1cccc(c1)C(=O)N(Cc1cnc3oc(C(C)C)c(C#N)c3n1)[C@H](CC13CC(C1)C3)CO2 [Compound I-85] | –
20 | – | – | < 1000 nM | Cc1cccc(C)c1-c1cc2nc(n1)NS(=O)(=O)c1cccc(c1)C(=O)N(Cc1cnc3c(n1)CC(C(C)C)O3)[C@H](CC1(C)CC1)CO2 (single isomer, unassigned) [III-14] | –
21 | – | > 60% | < 1000 nM | Cc1cccc(C)c1-c1cc2nc(n1)NS(=O)(=O)c1cccc(c1)C(=O)N(Cc1cnc3oc(C(C)C)cc3n1)[C@H](C[C@H]1CCCCO1)CO2 [Compound I-7] | –
22 | < 1 µM | – | – | Cc1cccc(C)c1-c1nc2nc(c1C)OC[C@@H](CC(C)(C)C)N(Cc1cnc3nc(C(C)C)n(C)c3n1)C(=O)c1cccc(c1)S(=O)(=O)N2 [Compound I-167] | Emax ([1]; 18-24 hours): > 60%
23 | – | > 60% | < 1000 nM | Cc1cccc(C)c1-c1cc2nc(n1)NS(=O)(=O)c1cccc(c1)C(=O)N(Cc1cnc3nc(C(C)C)n(C)c3n1)[C@H](COC(C)C)CO2 [Compound I-90] | –
24 | – | > 60% | < 1000 nM | Cc1cccc(C)c1-c1cc2nc(n1)NS(=O)(=O)c1cccc(c1)C(=O)N(Cc1cnc3oc(C(C)C)c(C)c3n1)[C@H](CCC1(C)CCC1)CO2 [Compound I-34] | –

Row | Structure (SMILES) | EC50 [1] | Emax [2] | EC50 [2] | other results
25 | Cc1cccc(C)c1-c1cc2nc(n1)NS(=O)(=O)c1cccc(c1)C(=O)N(Cc1cnc3oc(C(C)C)cc3n1)C(COC1CCC1)CO2 (single isomer, unassigned) [Compound I-49, 11-(cyclobutoxymethyl)-6-(2,6-dimethylphenyl)-12-[(6-isopropylfuro[2,3-b]pyrazin-2-yl)methyl]-2,2-dioxo-9-oxa-2λ^6-thia-3,5,12,19-tetrazatricyclo[12.3.1.14,8]nonadeca-1(18),4(19),5,7,14,16-hexaen-13-one] | – | > 60% | < 1000 nM | –
26 | Cc1cccc(CC(C)C)c1-c1nc2nc(c1C)OC[C@@H](CC(C)(C)C)N(Cc1cnc3cc(C(C)(C)C)n(C)c3n1)C(=O)c1cccc(c1)S(=O)(=O)N2 [Compound I-206, (5P,11R)-12-({6-tert-butyl-5-methyl-5H-pyrrolo[2,3-b]pyrazin-3-yl}methyl)-11-(2,2-dimethylpropyl)-7-methyl-6-[2-methyl-6-(2-methylpropyl)phenyl]-9-oxa-2λ^6-thia-3,5,12,19-tetraazatricyclo[12.3.1.1∧{4,8}]nonadeca-1(17),4(19),5,7,14(18),15-hexaene-2,2,13-trione] | < 1 µM | – | – | B Max activity (%) ([1]; 18-24 hours): +++ (+++ is >60%); C Max activity (%) ([3]; 18-24 hours): +++ (+++ is >60%); EC50 [3]: < 1000 nM

Reference: US20250340574A1, “MODULATORS OF CYSTIC FIBROSIS TRANSMEMBRANE CONDUCTANCE REGULATOR” (Vertex Pharmaceuticals Incorporated, priority 2022, published 2025)
